PMC8198871, “Suppression of Breast Cancer by Small Molecules That Block the Prolactin Receptor” (Cancers, 2021)

Key:
[1] = biological target: T1, prolactin receptor (PRLR) (Homo sapiens, UniProt P16471); test: microscale thermophoresis; confirmed by isothermal titration calorimetry; type: binding
T1 construct: extracellular domain (ECD), purified recombinant
T1 sequence (P16471 25-234 limits assumed): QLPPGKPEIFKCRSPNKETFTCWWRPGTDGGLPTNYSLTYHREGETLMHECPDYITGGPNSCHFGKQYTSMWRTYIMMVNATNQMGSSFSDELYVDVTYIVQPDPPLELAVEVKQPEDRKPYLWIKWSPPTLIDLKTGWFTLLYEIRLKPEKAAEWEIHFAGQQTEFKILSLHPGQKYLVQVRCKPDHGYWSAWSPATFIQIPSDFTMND

[2] = biological target: T2, hypocretin receptor 1 (HCRTR1) (Homo sapiens, UniProt O43613); test: DiscoverX GPCR selectivity panel, multiple doses; type: cell-based
T2 sequence (O43613 1-425): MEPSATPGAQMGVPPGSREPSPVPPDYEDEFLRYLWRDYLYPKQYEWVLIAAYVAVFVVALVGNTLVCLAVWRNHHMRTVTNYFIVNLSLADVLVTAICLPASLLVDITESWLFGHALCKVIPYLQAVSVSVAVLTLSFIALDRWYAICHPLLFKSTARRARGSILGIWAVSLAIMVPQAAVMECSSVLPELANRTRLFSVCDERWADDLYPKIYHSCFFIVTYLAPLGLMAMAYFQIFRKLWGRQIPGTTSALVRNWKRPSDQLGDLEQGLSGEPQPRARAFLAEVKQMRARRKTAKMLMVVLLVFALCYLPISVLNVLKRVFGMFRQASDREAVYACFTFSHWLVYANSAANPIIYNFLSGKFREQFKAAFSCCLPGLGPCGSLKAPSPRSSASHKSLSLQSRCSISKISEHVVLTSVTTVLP

[3] = biological target: serotonin receptor 2A (HTR2A) (Homo sapiens, UniProt P28223); test: DiscoverX GPCR selectivity panel, multiple doses; type: cell-based
[4] = biological target: T3, serotonin receptor 2C (HTR2C) (Homo sapiens, UniProt P28335); test: DiscoverX GPCR selectivity panel, multiple doses; type: cell-based
T3 sequence (P28335 33-458): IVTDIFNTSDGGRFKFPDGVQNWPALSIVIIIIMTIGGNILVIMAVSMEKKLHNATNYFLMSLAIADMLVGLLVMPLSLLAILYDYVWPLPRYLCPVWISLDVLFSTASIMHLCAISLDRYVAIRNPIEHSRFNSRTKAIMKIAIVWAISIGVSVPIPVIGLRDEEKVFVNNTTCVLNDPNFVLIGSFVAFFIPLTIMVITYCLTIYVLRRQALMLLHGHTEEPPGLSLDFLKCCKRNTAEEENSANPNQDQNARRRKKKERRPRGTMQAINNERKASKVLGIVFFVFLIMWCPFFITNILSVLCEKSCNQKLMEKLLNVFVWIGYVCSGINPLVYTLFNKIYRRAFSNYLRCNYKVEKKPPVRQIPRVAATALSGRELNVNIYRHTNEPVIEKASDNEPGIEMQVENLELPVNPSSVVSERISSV

Sequence of serotonin receptor 2A (HTR2A) (P28223 whole entry): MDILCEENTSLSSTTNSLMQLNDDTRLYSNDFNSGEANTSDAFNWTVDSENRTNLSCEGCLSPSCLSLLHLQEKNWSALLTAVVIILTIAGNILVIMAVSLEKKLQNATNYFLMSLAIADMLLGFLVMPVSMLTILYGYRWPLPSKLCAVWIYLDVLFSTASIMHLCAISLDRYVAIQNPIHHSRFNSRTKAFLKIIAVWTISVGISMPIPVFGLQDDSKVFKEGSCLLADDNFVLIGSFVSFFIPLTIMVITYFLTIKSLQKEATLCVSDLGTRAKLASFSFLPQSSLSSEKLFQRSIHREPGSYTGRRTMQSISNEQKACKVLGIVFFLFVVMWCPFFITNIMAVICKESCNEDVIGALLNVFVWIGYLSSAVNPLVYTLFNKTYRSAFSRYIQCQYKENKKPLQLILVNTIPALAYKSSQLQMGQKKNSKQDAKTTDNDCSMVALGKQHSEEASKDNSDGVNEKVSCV

Work on `CCN(CC)c1ccc(/C=N/NC(=O)c2c(Cl)cnn2C)c(O)c1` [SMI-6] yielded a Kd [1] of 3.31 µM, an IC50 [2] of 6.71 µM and an IC50 [3] of 2.39 µM. For the same molecule, the IC50 [4] was 3.48 µM.
